Measurements as given in EPA's ToxRefDB 2.

Experiments:
rat [1] = details: Combined chronic toxicity/carcinogenicity, sprague dawley, Oral, Feed, dose end: 104 week, group: systemic
dog [2] = details: Chronic toxicity; beagle; Oral; Feed; dose end: 52 week; group: systemic; systemic / in life observation / body weight / body weight gain + systemic / organ weight / heart / absolute + systemic / organ weight / …
dog [3] = details: Sub-acute repeat dose toxicity, beagle, Oral, Gavage/Intubation, dose end: 4 week, group: systemic
rat [4] = details: Sub-acute repeat dose toxicity; sprague dawley; Oral; Gavage/Intubation; dose end: 4 week; group: systemic; systemic / organ weight / liver / absolute + systemic / organ weight / liver / relative to body weight
dog [5] = details: Sub-acute repeat dose toxicity, beagle, Oral, Gavage/Intubation, dose end: 4 week, group: systemic; remark: listed apart in the source
primate = details: Sub-acute repeat dose toxicity, macaque, Oral, Gavage/Intubation, dose end: 4 week, group: systemic
rabbit [6] = details: Prenatal developmental toxicity study; himalayan; Oral; Gavage/Intubation; dose end: 18 GD; group: maternal; systemic / in life observation / clinical signs / defecation + systemic / in life observation / clinical signs / feces, discoloration + …
rat [7] = details: Combined chronic toxicity/carcinogenicity, other, Oral, Feed, dose end: 104 week, group: systemic
mouse [8] = details: Subchronic oral toxicity in rodents, cd1, Feed, dose end: 90 day, group: systemic
dog [9] = details: Chronic toxicity, beagle, Oral, Capsule, dose end: 52 week, group: systemic
mouse [10] = details: Carcinogenicity; cd1; Oral; Feed; dose end: 18 month; group: systemic; systemic / hematology / erythrocyte (rbc) count differential / erythrocyte (rbc) + systemic / hematology / heinz body / heinz body + …
rat [11] = details: Subchronic oral toxicity in rodents, sprague dawley, Feed, dose end: 90 day, group: systemic, systemic / hematology / erythrocyte (rbc) count differential / erythrocyte (rbc) + systemic / hematology / hematocrit (hct) / hematocrit (…
rat [12] = details: Subchronic oral toxicity in rodents, sprague dawley, Feed, dose end: 90 day, group: systemic
rat [13] = details: Multigenerational reproductive toxicity study, sprague dawley, Oral, Feed, dose end: 2 generation
rat [14] = details: Subchronic dermal toxicity, sprague dawley, Topical, dose end: 90 day, group: systemic, systemic / pathology microscopic / skin / acanthosis + systemic / pathology microscopic / skin / edema + systemic / pathology microscopic / …
rat [15] = details: Sub-acute dermal toxicity, sprague dawley, Topical, dose end: 2 week, group: systemic
rat [16] = details: Subchronic dermal toxicity, Topical, dose end: 68 day, group: systemic
rat [17] = details: Fertility (Segment I), Oral, Gavage/Intubation, dose end: 1 generation, group: parental
rat [18] = details: Fertility (Segment I), Oral, Gavage/Intubation, dose end: 1 generation
rabbit [19] = details: Sub-acute repeat dose toxicity, new zealand white, Oral, Gavage/Intubation, dose end: 13 day
rabbit [20] = details: Sub-acute repeat dose toxicity, new zealand white, Oral, Gavage/Intubation, dose end: 13 day, group: systemic
rat [21] = details: Prenatal developmental toxicity study, sprague dawley, Oral, Gavage/Intubation, dose end: 18 GD
rabbit [22] = details: Prenatal developmental toxicity study, new zealand white, Oral, Gavage/Intubation, dose end: 19 GD, group: maternal
[23] = systemic / in life observation / body weight / body weight + systemic / clinical chemistry / phosphorus / phosphate + systemic / clinical …
[24] = systemic / clinical chemistry / alkaline phosphatase (alp/alk) / alkaline phosphatase (alp/alk) + systemic / pathology microscopic / liver…
[25] = systemic / pathology microscopic / liver / pigmentation
[26] = systemic / clinical chemistry / alanine aminotransferase (alt/sgpt) / alanine aminotransferase (alt/sgpt) + systemic / clinical chemistry / …
[27] = systemic / clinical chemistry / alkaline phosphatase (alp/alk) / alkaline phosphatase (alp/alk)
[28] = systemic / clinical chemistry / bilirubin / total bilirubin + systemic / organ weight / liver / relative to body weight + systemic / …
[29] = systemic / pathology microscopic / liver / granuloma + systemic / pathology microscopic / liver / infiltration cellular + systemic / …
[30] = systemic / organ weight / spleen / absolute + systemic / urinalysis / volume / volume
[31] = systemic / organ weight / spleen / absolute + systemic / organ weight / spleen / relative to body weight + systemic / hematology / …
[32] = systemic / hematology / jolly bodies / jolly bodies + systemic / hematology / mean corpuscular hemoglobin concentration (mchc) / mean …
[33] = systemic / hematology / mean corpuscular hemoglobin concentration (mchc) / mean corpuscular hemoglobin concentration (mchc)
[34] = systemic / hematology / erythrocyte (rbc) count differential / erythrocyte (rbc) + systemic / hematology / hemoglobin (hgb) / hemoglobin (…
[35] = systemic / hematology / methemoglobin / methemoglobin + systemic / hematology / reticulocyte / reticulocyte + systemic / pathology …
[36] = group: offspring, systemic / organ weight / spleen / absolute + systemic / organ weight / spleen / relative to body weight
[37] = group: offspring, systemic / organ weight / spleen / absolute + systemic / organ weight / spleen / relative to body weight + systemic / organ weight / liver…
[38] = group: parental, systemic / organ weight / spleen / absolute + systemic / organ weight / spleen / relative to body weight
[39] = group: parental, systemic / organ weight / spleen / relative to body weight + systemic / organ weight / spleen / absolute
[40] = group: reproductive, reproductive / offspring survival early / litter size / litter size
[41] = systemic / in life observation / clinical signs / erythema
[42] = systemic / in life observation / clinical signs / erythema + systemic / in life observation / clinical signs / general pallor + systemic / …
[43] = systemic / in life observation / clinical signs / [other] + systemic / pathology gross / skin / thickened + systemic / pathology gross / …
[44] = systemic / in life observation / body weight / body weight gain + systemic / in life observation / clinical signs / salivation
[45] = group: maternal, reproductive / reproductive performance / estrous cycle / length
[46] = group: parental, systemic / in life observation / body weight / body weight gain + systemic / in life observation / clinical signs / salivation + systemic / …
[47] = group: maternal, reproductive / reproductive performance / aborted / aborted
[48] = group: systemic, systemic / in life observation / body weight / body weight + systemic / in life observation / clinical signs / abnormal feces + systemic / …
[49] = group: systemic, systemic / in life observation / clinical signs / abnormal feces
[50] = systemic / in life observation / clinical signs / tarry stools
[51] = systemic / in life observation / clinical signs / tarry stools + systemic / in life observation / body weight / body weight + systemic / in …
[52] = group: developmental, developmental / developmental malformation / bone / delayed ossification + developmental / developmental malformation / kidney / dilated …
[53] = group: maternal, systemic / in life observation / body weight / body weight + systemic / in life observation / clinical signs / salivation + systemic / in …
[54] = reproductive / reproductive performance / aborted / aborted + systemic / in life observation / body weight / body weight gain + systemic / …
[55] = systemic / in life observation / clinical signs / abnormal feces

## O=C1CC=C([O-])N=N1.[K+] [Maleic hydrazide, potassium salt]
Rat [1]; systemic / in life observation / body weight / body weight
  LOAEL: 500 mg/kg/day
Rat [1]; [23]
  LEL: 500 mg/kg/day
  NOAEL: 25 mg/kg/day
Rat [1]; systemic / organ weight / kidney / absolute + systemic / organ weight / liver / absolute + systemic / in life observation / body weight / …
  NEL: 25 mg/kg/day
Dog [2]
  LEL: 87 mg/kg/day
  LOAEL: 87 mg/kg/day
  NEL: 25 mg/kg/day
  NOAEL: 25 mg/kg/day

## CC[C@H](NC(=O)c1cc(F)ccc1[N-]S(=O)(=O)c1cccc2cccnc12)c1ccccc1.[Na+] [AVE3295]
Dog [3]; [24]
  LOAEL: 5 mg/kg/day
  NOAEL: 1 mg/kg/day
Dog [3]; [25]
  LEL: 1 mg/kg/day
  NEL: < 1 mg/kg/day
Rat [4]
  LEL: 2000 mg/kg/day
  LOAEL: > 2000 mg/kg/day
  NEL: 315 mg/kg/day
  NOAEL: ≥ 2000 mg/kg/day
Dog [5]; [26]
  LOAEL: > 300 mg/kg/day
  NOAEL: ≥ 300 mg/kg/day
Dog [5]; [27]
  LEL: 10 mg/kg/day
  NEL: < 10 mg/kg/day
primate; [28]
  LOAEL: > 1000 mg/kg/day
  NOAEL: ≥ 1000 mg/kg/day
primate; [29]
  LEL: 60 mg/kg/day
  NEL: < 60 mg/kg/day
Rabbit [6]
  LEL: 1000 mg/kg/day
  LOAEL: > 1000 mg/kg/day
  NEL: 250 mg/kg/day
  NOAEL: ≥ 1000 mg/kg/day

## O=C(NC(=O)c1c(F)cccc1F)Nc1ccc(OC(F)(F)C(F)OC(F)(F)F)c(Cl)c1 (stereo unspecified) [Novaluron]
Rat [7]; systemic / in life observation / clinical signs / anemia
  LOAEL: 30.6 mg/kg/day
Rat [7]; systemic / in life observation / clinical signs / anemia + systemic / hematology / erythrocyte (rbc) count differential / erythrocyte (rbc…
  NOAEL: 1.1 mg/kg/day
Rat [7]; [30]
  LEL: 1.4 mg/kg/day
  NEL: < 1.4 mg/kg/day
Mouse [8]; systemic / hematology / erythrocyte (rbc) count differential / erythrocyte (rbc) + systemic / hematology / hematocrit (hct) / hematocrit (…
  LEL: 15.2 mg/kg/day
Mouse [8]; systemic / organ weight / spleen / absolute + systemic / organ weight / spleen / relative to body weight
  LOAEL: 136 mg/kg/day
Mouse [8]; [31]
  NEL: 4.7 mg/kg/day
  NOAEL: 15.2 mg/kg/day
Dog [9]; [32]
  LOAEL: 100 mg/kg/day
  NOAEL: 10 mg/kg/day
Dog [9]; [33]
  LEL: 10 mg/kg/day
  NEL: < 10 mg/kg/day
Mouse [10]
  LEL: 53.4 mg/kg/day
  LOAEL: 53.4 mg/kg/day
  NEL: 3.6 mg/kg/day
  NOAEL: 3.6 mg/kg/day
Rat [11]
  LEL: 8.64 mg/kg/day
  LOAEL: 8.64 mg/kg/day
  NEL: 4.38 mg/kg/day
  NOAEL: 4.38 mg/kg/day
Rat [12]; [34]
  LEL: 4.7 mg/kg/day
  NEL: < 4.7 mg/kg/day
Rat [12]; [35]
  LOAEL: 818 mg/kg/day
  NOAEL: 8.3 mg/kg/day
Rat [13]; [36]
  LOAEL: 74.2 mg/kg/day
  NOAEL: < 74.2 mg/kg/day
Rat [13]; [37]
  LEL: 74.2 mg/kg/day
  NEL: < 74.2 mg/kg/day
Rat [13]; [38]
  LOAEL: 74.2 mg/kg/day
  NOAEL: < 74.2 mg/kg/day
Rat [13]; [39]
  LEL: 74.2 mg/kg/day
  NEL: < 74.2 mg/kg/day
Rat [13]; [40]
  LEL: 895 mg/kg/day
  LOAEL: > 895 mg/kg/day
  NEL: 298 mg/kg/day
  NOAEL: ≥ 895 mg/kg/day

## CC1(C)COCN1 [4,4-Dimethyloxazolidine]
Rat [14]
  LEL: 30 mg/kg/day
  LOAEL: 30 mg/kg/day
  NEL: 1 mg/kg/day
  NOAEL: 1 mg/kg/day
Rat [15]; [41]
  LEL: 10 mg/kg/day
  LOAEL: 10 mg/kg/day
Rat [15]; [42]
  NEL: 1 mg/kg/day
  NOAEL: 1 mg/kg/day
Rat [16]; systemic / in life observation / clinical signs / [other]
  LEL: 19.5 mg/kg/day
Rat [16]; [43]
  LOAEL: 195 mg/kg/day
  NEL: 1.95 mg/kg/day
  NOAEL: 19.5 mg/kg/day

## CCOc1cccc(C2(N3CCN(c4ccccc4)CC3)CCC(C)CC2)c1.CS(=O)(=O)O (stereo unspecified)
Rat [17]; [44]
  LOAEL: > 100 mg/kg/day
  NEL: 10 mg/kg/day
  NOAEL: ≥ 100 mg/kg/day
Rat [17]; systemic / in life observation / clinical signs / salivation
  LEL: 30 mg/kg/day
Rat [18]; [45]
  LEL: 10 mg/kg/day
  LOAEL: > 100 mg/kg/day
  NEL: < 10 mg/kg/day
  NOAEL: ≥ 100 mg/kg/day
Rat [18]; [46]
  LEL: 30 mg/kg/day
  LOAEL: > 100 mg/kg/day
  NEL: 10 mg/kg/day
  NOAEL: ≥ 100 mg/kg/day
Rabbit [19]; [47]
  LEL: 300 mg/kg/day
  LOAEL: > 500 mg/kg/day
  NEL: 100 mg/kg/day
  NOAEL: ≥ 500 mg/kg/day
Rabbit [19]; [48]
  LOAEL: > 500 mg/kg/day
  NOAEL: ≥ 500 mg/kg/day
Rabbit [19]; [49]
  LEL: 100 mg/kg/day
  NEL: < 100 mg/kg/day
Rabbit [20]; [50]
  LEL: 100 mg/kg/day
  NEL: < 100 mg/kg/day
Rabbit [20]; [51]
  LOAEL: > 1000 mg/kg/day
  NOAEL: ≥ 1000 mg/kg/day
Rat [21]; [52]
  LEL: 60 mg/kg/day
  LOAEL: > 125 mg/kg/day
  NOAEL: ≥ 125 mg/kg/day
Rat [21]; [53]
  LEL: 60 mg/kg/day
  LOAEL: > 125 mg/kg/day
  NEL: 12 mg/kg/day
  NOAEL: ≥ 125 mg/kg/day
Rabbit [22]; [54]
  LOAEL: > 300 mg/kg/day
  NOAEL: ≥ 300 mg/kg/day
Rabbit [22]; [55]
  LEL: 15 mg/kg/day
  NEL: < 15 mg/kg/day
